Measurements from patent US8309597B2, “1,1′-diadamantyl carboxylic acids, medicaments containing such compounds and their use” (Boehringer Ingelheim International GmbH, priority 2008, dated 2012).

Target: T1, 11β-hydroxysteroid dehydrogenase (HSD) 1 (Homo sapiens, UniProt P28845)
T1 construct: detecting cortisol generated from cortisterone by human liver microsomes; from tissue; host or cells: human liver microsomes
Test: In vitro inhibition of 11β-HSD1, HTRF detection of cortisol generated from cortisone by human liver microsomes
Format: biochemical
Conditions: compound concentration 1 μM, 100% indicates no inhibition, zero or below zero indicates complete inhibition
Procedure: Briefly, compounds are incubated for 1 hour at 37° C. in Tris buffer (20 mM tris, 5 mM EDTA, pH 6.0) containing NADPH (200 μM) and cortisone (80 nM). Cortisol generated in the reaction is then detected with a competitive immunoassay, involving two HTRF conjugates: cortisol linked to XL665 and anti-cortisol antibody labeled with Europium cryptate. The incubation period for detection reaction is typically 2 hours. The amount of cortisol is determined by reading the time-resolved fluorescence of the wells (Ex 320/75 nm; Em 615/8.5 nm and 665/7.5 nm). The ratio of the two emission signals is then calculated (Em665*10000/Em615). […] Each assay also contains a calibration curve with cortisol to transform the fluorescent data into cortisol concentrations. Percent inhibition (% CTL) of each compound is determined relative to the carbenoxolone signal and IC50 curves are generated.
The % CTL values of some example compounds at a concentration of 1 μM are provided in the following Table 2 wherein 100% indicates no inhibition and a value of zero or below zero indicates complete inhibition. The measurement of % CTL is described hereinbefore.

T1 sequence (P28845 whole entry): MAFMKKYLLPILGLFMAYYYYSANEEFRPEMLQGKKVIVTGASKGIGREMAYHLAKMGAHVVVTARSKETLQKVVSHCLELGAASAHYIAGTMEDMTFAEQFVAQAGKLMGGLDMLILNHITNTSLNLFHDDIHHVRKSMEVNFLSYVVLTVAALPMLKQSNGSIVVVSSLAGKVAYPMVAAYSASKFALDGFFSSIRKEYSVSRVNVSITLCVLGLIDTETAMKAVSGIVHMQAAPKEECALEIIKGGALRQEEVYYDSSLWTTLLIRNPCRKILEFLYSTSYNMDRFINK

| Structure (SMILES) | 11β-HSD 1 inhibitory activity (% CTL at 1 μM) [% CTL] |
| --- | --- |
| COC(=O)C12CC3CC(C1)CC(C14CC5CC(CC(C(=O)O)(C5)C1)C4)(C3)C2 [Example 1] | −7 |
| CNC(=O)C12CC3CC(C1)CC(C14CC5CC(CC(C(=O)O)(C5)C1)C4)(C3)C2 [Example 2] | 29 |
| CC(C)(O)C12CC3CC(C1)CC(C14CC5CC(CC(C(=O)O)(C5)C1)C4)(C3)C2 [Example 3] | −11 |
| CN(C)C(=O)C12CC3CC(C1)CC(C14CC5CC(CC(C(=O)O)(C5)C1)C4)(C3)C2 [Example 4] | −13 |
| NC(=O)C12CC3CC(C1)CC(C14CC5CC(CC(C(=O)O)(C5)C1)C4)(C3)C2 [Example 5] | 50 |
| N#CC12CC3CC(C1)CC(C14CC5CC(CC(C(=O)O)(C5)C1)C4)(C3)C2 [Example 6] | 1 |
| CC(C)(C)OC(=O)NC12CC3CC(C1)CC(C14CC5CC(CC(C(=O)O)(C5)C1)C4)(C3)C2 [Example 7] | 26 |
| NC12CC3CC(C1)CC(C14CC5CC(CC(C(=O)O)(C5)C1)C4)(C3)C2 [Example 8] | 95 |
| CN(Cc1ccccc1)C(=O)C12CC3CC(C1)CC(C14CC5CC(CC(C(=O)O)(C5)C1)C4)(C3)C2 [Example 9] | 49 |
| CN(CCc1ccccc1)C(=O)C12CC3CC(C1)CC(C14CC5CC(CC(C(=O)O)(C5)C1)C4)(C3)C2 [Example 10] | −3 |
| O=C(O)C12CC3CC(C1)CC(C14CC5CC(CC(C(=O)N6CCCC6)(C5)C1)C4)(C3)C2 [Example 11] | −11 |
| O=C(O)C12CC3CC(C1)CC(C14CC5CC(CC(C(=O)N6CCOCC6)(C5)C1)C4)(C3)C2 [Example 12] | 1 |
| O=C(O)C12CC3CC(C1)CC(C14CC5CC(CC(C(=O)NCCO)(C5)C1)C4)(C3)C2 [Example 13] | 53 |
| O=C(O)C12CC3CC(C1)CC(C14CC5CC(CC(CO)(C5)C1)C4)(C3)C2 [Example 14] | −5 |
| O=C(O)C12CC3CC(C1)CC(C14CC5CC(CC(COc6ccccn6)(C5)C1)C4)(C3)C2 [Example 15] | 34 |
| CC(=O)NC12CC3CC(C1)CC(C14CC5CC(CC(C(=O)O)(C5)C1)C4)(C3)C2 [Example 16] | 69 |
| CC(C)N(C)C(=O)C12CC3CC(C1)CC(C14CC5CC(CC(C(=O)O)(C5)C1)C4)(C3)C2 [Example 17] | −26 |
| CCN(C)C(=O)C12CC3CC(C1)CC(C14CC5CC(CC(C(=O)O)(C5)C1)C4)(C3)C2 [Example 18] | −26 |
| N#CNC(=O)C12CC3CC(C1)CC(C14CC5CC(CC(C(=O)O)(C5)C1)C4)(C3)C2 [Example 19] | 19 |
| O=C(O)C12CC3CC(C1)CC(C14CC5CC(CC(C(=O)N6CCC6)(C5)C1)C4)(C3)C2 [Example 20] | 7 |
| O=C(O)C12CC3CC(C1)CC(C14CC5CC(CC(c6nnn[nH]6)(C5)C1)C4)(C3)C2 [Example 21] | 69 |
| CN1CCN(C(=O)C23CC4CC(C2)CC(C25CC6CC(CC(C(=O)O)(C6)C2)C5)(C4)C3)CC1 [Example 22] | 37 |
| COc1ccc(CCCN(C)C(=O)C23CC4CC(C2)CC(C25CC6CC(CC(C(=O)O)(C6)C2)C5)(C4)C3)cc1 [Example 23] | −18 |
| COc1ccc(C(=O)C23CC4CC(C2)CC(C25CC6CC(CC(C(=O)O)(C6)C2)C5)(C4)C3)cc1 [Example 24] | −33 |
| O=C(O)C12CC3CC(C1)CC(C14CC5CC(CC(c6nnc(-c7ccccc7)o6)(C5)C1)C4)(C3)C2 [Example 26] | 44 |

| Structure (SMILES) | 11β-HSD 1 inhibitory activity (% CTL at 1 μM) [% CTL] |
| --- | --- |
| O=C(O)C12CC3CC(C1)CC(C14CC5CC(CC(c6nc7ccccc7o6)(C5)C1)C4)(C3)C2 [Example 27] | 12 |
| O=C(O)C12CC3CC(C1)CC(C14CC5CC(CC(C(=O)Nc6ccccc6)(C5)C1)C4)(C3)C2 [Example 28] | 96 |
| CN(C(=O)C12CC3CC(C1)CC(C14CC5CC(CC(C(=O)O)(C5)C1)C4)(C3)C2)C1CCCCC1 [Example 29] | −8 |
| CN(C(=O)C12CC3CC(C1)CC(C14CC5CC(CC(C(=O)O)(C5)C1)C4)(C3)C2)c1ccccc1 [Example 30] | 30 |
| CN(C(=O)C12CC3CC(C1)CC(C14CC5CC(CC(C(=O)O)(C5)C1)C4)(C3)C2)C1CCCNC1 (stereo not shown) [Example 31] | 61 |
| Cn1c(C23CC4CC(C2)CC(C25CC6CC(CC(C(=O)O)(C6)C2)C5)(C4)C3)nc2ccccc21 [Example 32] | 8 |
| COc1ccc(N(C)C(=O)C23CC4CC(C2)CC(C25CC6CC(CC(C(=O)O)(C6)C2)C5)(C4)C3)cc1 [Example 33] | 81 |
| CN(C(=O)C12CC3CC(C1)CC(C14CC5CC(CC(C(=O)O)(C5)C1)C4)(C3)C2)c1ccc(-c2ccccc2)cc1 [Example 34] | 36 |
| CCN(C(=O)C12CC3CC(C1)CC(C14CC5CC(CC(C(=O)O)(C5)C1)C4)(C3)C2)C1CCCCC1 [Example 35] | −3 |
| CN(C(=O)C12CC3CC(C1)CC(C14CC5CC(CC(C(=O)O)(C5)C1)C4)(C3)C2)C1CCC(c2ccccc2)CC1 (stereo not shown) [Example 36] | 13 |
| O=C(O)C12CC3CC(C1)CC(C14CC5CC(CC(C6=NCc7ccccc7N6)(C5)C1)C4)(C3)C2 [Example 37] | 62 |
| CN(C(=O)C12CC3CC(C1)CC(C14CC5CC(CC(C(=O)O)(C5)C1)C4)(C3)C2)C1CCC(C(C)(C)C)CC1 (stereo not shown) [Example 38] | 7 |
| O=C(O)C12CC3CC(C1)CC(C14CC5CC(CC(C(=O)N(CCc6ccccc6)C6CCCCC6)(C5)C1)C4)(C3)C2 [Example 39] | 53 |
| CN(C(=O)C12CC3CC(C1)CC(C14CC5CC(CC(C(=O)O)(C5)C1)C4)(C3)C2)C1CCCC1 [Example 40] | −20 |
| O=C(O)C12CC3CC(C1)CC(C14CC5CC(CC(c6nc7ccccc7n6CCc6ccccc6)(C5)C1)C4)(C3)C2 [Example 41] | 0 |
| O=C(O)C12CC3CC(C1)CC(C14CC5CC(CC(C(=O)N6Cc7ccccc7C6)(C5)C1)C4)(C3)C2 [Example 42] | −36 |
| O=C(O)C12CC3CC(C1)CC(C14CC5CC(CC(C(=O)N6CCc7ccccc7C6)(C5)C1)C4)(C3)C2 [Example 43] | −20 |
| N#Cc1ccc2c(c1)CN(C(=O)C13CC4CC(C1)CC(C15CC6CC(CC(C(=O)O)(C6)C1)C5)(C4)C3)CC2 [Example 44] | −17 |
| O=C(O)c1ccc(Oc2ccc3c(c2)CN(C(=O)C24CC5CC(C2)CC(C26CC7CC(CC(C(=O)O)(C7)C2)C6)(C5)C4)CC3)cc1 [Example 45] | 8 |
| CN(C)C(=O)c1ccc(Oc2ccc3c(c2)CN(C(=O)C24CC5CC(C2)CC(C26CC7CC(CC(C(=O)O)(C7)C2)C6)(C5)C4)CC3)cc1 [Example 46] | 0 |
| COCC1CCCN1C(=O)C12CC3CC(C1)CC(C14CC5CC(CC(C(=O)O)(C5)C1)C4)(C3)C2 (stereo not shown) [Example 47] | −15 |
| O=C(O)C12CC3CC(C1)CC(C14CC5CC(CC(C(=O)N6CCc7cc(Br)ccc7C6)(C5)C1)C4)(C3)C2 [Example 49] | 24 |
| O=C(O)C12CC3CC(C1)CC(C14CC5CC(CC(c6ncc7ccccc7n6)(C5)C1)C4)(C3)C2 [Example 50] | −9 |
| O=C(O)C12CC3CC(C1)CC(C14CC5CC(CC(C(=O)N6CCc7ccccc76)(C5)C1)C4)(C3)C2 [Example 51] | 4 |
